Laboratory results: PubChem BioAssay AID226 (DTP/NCI, 2004)
Values joined by “and” are separate entries in the source; they are usually repeats but may differ in a detail not shown here. Equal entries are not always repeated. Inconclusive results and toxic doses are left out. How the source made its calls: active means survival T/C of 150% or more; inactive means T/C below 125% in these data.

Test system: B6C3F1 mice, intracerebral ependymoblastoma, median survival T/C
Assay: NCI In Vivo Anticancer Drug Screen. Data for tumor model Ependymoblastoma (intracerebral) in B6C3F1 mice
Details: endpoint: median survival time, higher = longer survival
Protocol: The antitumor activity of compounds was measured in mice bearing transplantable tumors. Survival or tumor size were measured and the results are expressed as the measurement made in the treated group (T) divided by the measurement made in the vehicle treated control group (C). The tumor model used in this assay is Ependymoblastoma (intracerebral) in B6C3F1 mice

Measured: T/C

c1cc2n(n1)CCN2
inactive: dose: 32.0 mg/kg/injection, schedule: Q01DX005 (ip), vehicle: water 93 % of control and 88 % of control | dose: 32.0 mg/kg/injection, schedule: Q#A X006 (ip), vehicle: water 100 % of control | dose: 64.0 mg/kg/injection, schedule: Q01DX001 (ip), vehicle: water 93 % of control and 94 % of control | dose: 64.0 mg/kg/injection, schedule: Q01DX001 (oral), vehicle: water 100 % of control and 106 % of control | dose: 64.0 mg/kg/injection, schedule: Q01DX005 (ip), vehicle: water 102 % of control and 104 % of control | dose: 64.0 mg/kg/injection, schedule: Q01DX005 (oral), vehicle: water 98 % of control | dose: 64.0 mg/kg/injection, schedule: Q#A X002 (ip), vehicle: water 98 % of control | dose: 64.0 mg/kg/injection, schedule: Q#A X004 (ip), vehicle: water 94 % of control | dose: 64.0 mg/kg/injection, schedule: Q#A X006 (ip), vehicle: water 102 % of control | dose: 128.0 mg/kg/injection, schedule: Q01DX001 (ip), vehicle: water 92 % of control and 93 % of control | dose: 128.0 mg/kg/injection, schedule: Q01DX001 (oral), vehicle: water 103 % of control and 108 % of control | dose: 128.0 mg/kg/injection, schedule: Q01DX005 (ip), vehicle: water 91 % of control and 113 % of control | dose: 128.0 mg/kg/injection, schedule: Q01DX005 (oral), vehicle: water 104 % of control | dose: 128.0 mg/kg/injection, schedule: Q#A X002 (ip), vehicle: water 100 % of control | dose: 128.0 mg/kg/injection, schedule: Q#A X004 (ip), vehicle: water 109 % of control | dose: 128.0 mg/kg/injection, schedule: Q#A X006 (ip), vehicle: water 102 % of control | dose: 256.0 mg/kg/injection, schedule: Q01DX001 (ip), vehicle: water 92 % of control and 100 % of control | dose: 256.0 mg/kg/injection, schedule: Q01DX001 (oral), vehicle: water 98 % of control and 100 % of control | dose: 256.0 mg/kg/injection, schedule: Q01DX005 (ip), vehicle: water 106 % of control | dose: 256.0 mg/kg/injection, schedule: Q01DX005 (oral), vehicle: water 116 % of control | dose: 256.0 mg/kg/injection, schedule: Q#A X002 (ip), vehicle: water 98 % of control | dose: 256.0 mg/kg/injection, schedule: Q#A X006 (ip), vehicle: water 115 % of control | dose: 512.0 mg/kg/injection, schedule: Q01DX001 (ip), vehicle: water 106 % of control and 122 % of control | dose: 512.0 mg/kg/injection, schedule: Q01DX001 (oral), vehicle: water 103 % of control and 121 % of control | dose: 1024.0 mg/kg/injection, schedule: Q01DX001 (ip), vehicle: water 109 % of control

CCCS(=O)CC1NC(=O)NC1=O (stereo not drawn)
inactive: dose: 9.38 mg/kg/injection, schedule: Q01DX005 (ip), vehicle: Klucel (hydroxypropylcellulose) (HPC) 101 % of control | dose: 18.75 mg/kg/injection, schedule: Q01DX005 (ip), vehicle: Klucel (hydroxypropylcellulose) (HPC) 98 % of control | dose: 37.5 mg/kg/injection, schedule: Q01DX005 (ip), vehicle: Klucel (hydroxypropylcellulose) (HPC) 109 % of control | dose: 75.0 mg/kg/injection, schedule: Q01DX005 (ip), vehicle: Klucel (hydroxypropylcellulose) (HPC) 106 % of control | dose: 150.0 mg/kg/injection, schedule: Q01DX005 (ip), vehicle: Klucel (hydroxypropylcellulose) (HPC) 98 % of control

CCCCCC(=O)O[C@]1(C(C)=O)CC[C@H]2[C@@H]3CCC4=CC(=O)CC[C@]4(C)[C@H]3CC[C@@]21C
inactive: dose: 8.0 mg/kg/injection, schedule: Q01DX005 (ip), vehicle: Klucel (hydroxypropylcellulose) (HPC) 105 % of control | dose: 8.0 mg/kg/injection, schedule: Q01DX005 (ip), vehicle: saline + alcohol 96 % of control | dose: 8.0 mg/kg/injection, schedule: Q01DX005 (ip), vehicle: saline with Tween-80 95 % of control and 105 % of control | dose: 16.0 mg/kg/injection, schedule: Q01DX005 (ip), vehicle: Klucel (hydroxypropylcellulose) (HPC) 106 % of control | dose: 16.0 mg/kg/injection, schedule: Q01DX005 (ip), vehicle: saline + alcohol 106 % of control | dose: 16.0 mg/kg/injection, schedule: Q01DX005 (ip), vehicle: saline with Tween-80 115 % of control and 89 % of control | dose: 32.0 mg/kg/injection, schedule: Q01DX005 (ip), vehicle: Klucel (hydroxypropylcellulose) (HPC) 87 % of control | dose: 32.0 mg/kg/injection, schedule: Q01DX005 (ip), vehicle: saline + alcohol 102 % of control | dose: 32.0 mg/kg/injection, schedule: Q01DX005 (ip), vehicle: saline with Tween-80 98 % of control and 117 % of control | dose: 64.0 mg/kg/injection, schedule: Q01DX005 (ip), vehicle: Klucel (hydroxypropylcellulose) (HPC) 101 % of control | dose: 64.0 mg/kg/injection, schedule: Q01DX005 (ip), vehicle: saline + alcohol 104 % of control | dose: 64.0 mg/kg/injection, schedule: Q01DX005 (ip), vehicle: saline with Tween-80 99 % of control and 105 % of control | dose: 128.0 mg/kg/injection, schedule: Q01DX005 (ip), vehicle: Klucel (hydroxypropylcellulose) (HPC) 86 % of control | dose: 128.0 mg/kg/injection, schedule: Q01DX005 (ip), vehicle: saline + alcohol 102 % of control | dose: 128.0 mg/kg/injection, schedule: Q01DX005 (ip), vehicle: saline with Tween-80 104 % of control and 107 % of control | dose: 256.0 mg/kg/injection, schedule: Q01DX005 (ip), vehicle: Klucel (hydroxypropylcellulose) (HPC) 95 % of control | dose: 256.0 mg/kg/injection, schedule: Q01DX005 (ip), vehicle: saline + alcohol 102 % of control | dose: 256.0 mg/kg/injection, schedule: Q01DX005 (ip), vehicle: saline with Tween-80 98 % of control and 107 % of control | dose: 512.0 mg/kg/injection, schedule: Q01DX005 (ip), vehicle: Klucel (hydroxypropylcellulose) (HPC) 95 % of control | dose: 512.0 mg/kg/injection, schedule: Q01DX005 (ip), vehicle: saline + alcohol 113 % of control | dose: 512.0 mg/kg/injection, schedule: Q01DX005 (ip), vehicle: saline with Tween-80 95 % of control and 105 % of control

CC(C)(N)C(=O)O
inactive: dose: 12.5 mg/kg/injection, schedule: Q01DX005 (ip), vehicle: saline with Tween-80 103 % of control | dose: 25.0 mg/kg/injection, schedule: Q01DX005 (ip), vehicle: saline with Tween-80 114 % of control | dose: 50.0 mg/kg/injection, schedule: Q01DX005 (ip), vehicle: saline with Tween-80 114 % of control | dose: 100.0 mg/kg/injection, schedule: Q01DX005 (ip), vehicle: saline with Tween-80 105 % of control | dose: 200.0 mg/kg/injection, schedule: Q01DX005 (ip), vehicle: saline with Tween-80 97 % of control | dose: 400.0 mg/kg/injection, schedule: Q01DX005 (ip), vehicle: saline with Tween-80 95 % of control | dose: 800.0 mg/kg/injection, schedule: Q01DX005 (ip), vehicle: saline with Tween-80 98 % of control | dose: 1600.0 mg/kg/injection, schedule: Q01DX005 (ip), vehicle: saline with Tween-80 116 % of control

NC(=O)c1ncn(C2OC(CO)C(O)C2O)n1 (stereo not drawn)
inactive: dose: 20.0 mg/kg/injection, schedule: Q01DX005 (ip), vehicle: saline 99 % of control and 100 % of control | dose: 40.0 mg/kg/injection, schedule: Q01DX005 (ip), vehicle: saline 98 % of control and 101 % of control | dose: 80.0 mg/kg/injection, schedule: Q01DX005 (ip), vehicle: saline 92 % of control and 103 % of control | dose: 160.0 mg/kg/injection, schedule: Q01DX005 (ip), vehicle: saline 104 % of control and 121 % of control | dose: 320.0 mg/kg/injection, schedule: Q01DX005 (ip), vehicle: saline 97 % of control and 118 % of control

CC1CN1C(=O)NCCCCCCNC(=O)N1CC1C (stereo not drawn)
inactive: dose: 1.25 mg/kg/injection, schedule: Q01DX005 (ip), vehicle: Klucel (hydroxypropylcellulose) (HPC) 105 % of control | dose: 2.5 mg/kg/injection, schedule: Q01DX005 (ip), vehicle: Klucel (hydroxypropylcellulose) (HPC) 108 % of control | dose: 5.0 mg/kg/injection, schedule: Q01DX005 (ip), vehicle: Klucel (hydroxypropylcellulose) (HPC) 120 % of control | dose: 10.0 mg/kg/injection, schedule: Q01DX005 (ip), vehicle: Klucel (hydroxypropylcellulose) (HPC) 109 % of control
